# According to the supplement of paper PMC10307832:
# How the values were obtained:
# Experiment in all cases: relative viability (nuclei count vs DMSO), 5 days (fraction); higher = more cells survive
# QS11 + Pictilisib = compound: C1CC2=C(C1)C=C(C=C2)OC3=NC(=C4C(=N3)N(C=N4)CC5=CC=C(C=C5)C6=CC=CC=C6)N[C@@H](CC7=CC=CC=C7)CO [QS11] + CS(=O)(=O)N1CCN(Cc2cc3nc(-c4cccc5[nH]ncc45)nc(N4CCOCC4)c3s2)CC1 [Pictilisib] (partner 1 µM)
# In short: (§1)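 Cells from lung cancer lines were seeded into 1536-well plates and, one day later, dosed by pin tool. Treatments were either a single drug or a fixed dose of an anchor drug with five library-drug doses (not always all listed) in √10 steps. After 5 days, nuclei were stained in a one-step fixation (final 0.05% Triton X-100, 1% formaldehyde, 1 ug/ml Hoechst) and counted on 4× images, and relative viability is the treated-to-vehicle nuclei ratio, as the median of duplicate plates.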
# AZ628 + Lapatinib = compound: CC1=C(C=C(C=C1)NC(=O)C2=CC(=CC=C2)C(C)(C)C#N)NC3=CC4=C(C=C3)N=CN(C4=O)C [AZ628] + CS(=O)(=O)CCNCc1ccc(-c2ccc3ncnc(Nc4ccc(OCc5cccc(F)c5)c(Cl)c4)c3c2)o1 [Lapatinib] (partner 2 µM)
# In short: as §1
# [1] = compound: C[As](C)SC[C@H](NC(=O)CC[C@H](N)C(=O)O)C(=O)NCC(=O)O [Darinaparsin] + CC1(C)CCC(c2ccc(Cl)cc2)=C(CN2CCN(c3ccc(C(=O)NS(=O)(=O)c4ccc(N[C@H](CCN5CCOCC5)CSc5ccccc5)c(S(=O)(=O)C(F)(F)F)c4)cc3)CC2)C1 [Navitoclax] (partner 0.5 µM)
# In short: as §1
# [2] = compound: C[As](C)SC[C@H](NC(=O)CC[C@H](N)C(=O)O)C(=O)NCC(=O)O [Darinaparsin] + C[C@]1(O)C[C@@H](c2nc(-c3ccc4ccc(-c5ccccc5)nc4c3)c3c(N)nccn32)C1 [Linsitinib] (partner 1 µM)
# In short: as §1
Cell Line,relative viability (QS11 + Pictilisib; first compound 0.08 µM),relative viability (QS11 + Pictilisib; first compound 0.253 µM),relative viability (QS11 + Pictilisib; first compound 0.8 µM),relative viability (QS11 + Pictilisib; first compound 2.53 µM),relative viability (QS11 + Pictilisib; first compound 8 µM),relative viability (AZ628 + Lapatinib; first compound 0.08 µM),relative viability (AZ628 + Lapatinib; first compound 0.253 µM),relative viability (AZ628 + Lapatinib; first compound 0.8 µM),relative viability (AZ628 + Lapatinib; first compound 2.53 µM),relative viability (AZ628 + Lapatinib; first compound 8 µM),relative viability ([1]; first compound 0.08 µM),relative viability ([1]; first compound 0.8 µM),relative viability ([1]; first compound 2.53 µM),relative viability ([1]; first compound 8 µM),relative viability ([2]; first compound 0.08 µM),relative viability ([2]; first compound 0.8 µM),relative viability ([2]; first compound 2.53 µM),relative viability ([2]; first compound 8 µM)
NCI-H2347,0.537,0.715,0.699,0.606,0.666,0.8,0.89,0.902,0.836,0.457,0.77,0.777,0.748,0.707,1,0.942,0.911,1.03
HCC-15,0.732,0.868,–,0.816,0.719,0.949,0.808,0.713,0.724,0.558,0.893,0.7,0.651,0.83,0.878,0.881,0.78,1.01
HCC-366,0.138,0.133,–,0.202,0.0869,1.1,0.918,0.968,0.87,0.717,1.3,1.06,1.12,1.41,0.969,0.609,0.427,1.06
BEN,0.554,0.641,0.529,0.524,0.705,0.775,0.554,0.661,0.815,0.545,0.0561,0.0673,0.0517,0.0548,0.947,1.02,0.764,1.11
NCI-H1993,0.843,0.935,0.799,0.875,0.635,0.883,0.78,0.766,0.834,0.838,0.801,0.836,1.04,1.16,0.65,0.7,0.699,0.695
NCI-H2405,0.393,0.412,0.468,0.756,0.567,0.733,0.59,0.487,0.487,0.515,0.801,0.829,0.781,0.88,1.01,0.91,0.812,0.887
NCI-H2126,0.489,0.444,0.503,0.501,0.476,0.758,0.857,0.834,0.752,0.89,0.949,0.835,0.856,0.86,0.815,0.756,0.589,0.803
LK-2,0.605,0.698,0.537,0.547,0.602,1.06,0.56,0.885,0.799,0.537,0.968,0.709,0.746,1.07,0.486,0.459,0.658,0.637
SK-MES-1,0.379,0.315,0.381,0.306,0.311,0.475,0.501,0.479,0.473,0.437,1.33,1.18,1.17,1.54,1.15,0.99,0.812,1.25
NCI-H1944,0.331,0.346,–,0.353,0.39,0.855,0.892,0.831,0.747,0.701,1.06,1.07,1.04,1.06,1.14,1.3,1.23,1.35
NCI-H1703,0.281,0.242,0.264,0.253,0.344,0.763,0.393,0.389,0.246,0.286,1.63,1.27,1.32,0.926,1.42,0.774,0.797,0.799
SW 1573,0.53,0.481,0.425,0.311,0.298,0.997,0.964,0.283,0.884,0.874,1.23,0.991,1.01,0.992,0.935,0.811,0.874,0.906
PC-14,0.658,0.639,0.667,0.569,0.604,0.347,0.365,0.351,0.313,0.343,1.19,0.981,1.04,1.17,1.04,0.94,0.896,1.09
NCI-H661,0.424,0.397,0.407,0.376,0.383,0.401,0.502,0.435,0.498,0.464,–,–,–,–,0.558,0.569,0.526,0.593
NCI-H1650,0.671,0.458,0.584,0.584,0.524,1.24,0.795,0.79,0.498,0.68,1.7,1.17,1.14,1.28,–,–,–,–
NCI-H650,0.861,0.939,0.902,0.876,0.958,1.2,0.778,1.08,1.2,0.898,–,–,–,–,1.26,0.9,0.801,0.871
NCI-H2170,0.326,0.356,0.327,0.276,0.263,0.3,0.279,0.248,0.268,0.278,0.615,0.524,0.559,0.69,–,–,–,–
NCI-H1563,0.718,0.703,0.68,0.586,0.617,1.11,0.965,1.07,0.868,0.939,–,–,–,–,1.23,1.14,1.21,1.3
NCI-H441,0.472,0.529,0.501,0.5,0.608,–,–,–,–,–,0.773,0.593,0.615,0.962,0.755,0.506,0.497,0.47
